Source: patent US11952374B2, “Bicyclic compounds” (Aligos Therapeutics, Inc., priority 2020, dated 2024)
Read-outs that look alike come from different tables or passages of the source.

What was measured:
HBV = assay: HBV-DNA antiviral assay using HepG2.117 cells (intracellular HBV DNA by qPCR); format: cell-based, HBV genotype D
Experimental: (§1) The following assay procedure describes the HBV antiviral assay, using HepG2.117 cells, which carry a stably integrated genotype D HBV genome under the control of a Tet-off promoter, and intracellular HBV DNA quantification as endpoint. Cell viability is assessed in parallel by measuring the intracellular ATP content using CellTiter-Glo 2.0 (Promega).
On day 0, HepG2.117 cells (which are maintained in routine cell culture with doxycycline present in the medium at a final concentration of 1 μg/mL) are seeded in 96-well plates (white with clear bottom) at a density of 2.0×10^4 cells/well (0.1 mL/well) in medium without doxycycline to induce pgRNA transcription and subsequent formation of HBV particles. The cells are incubated at 37° C. and 5% CO2.
(§2) On day 1, medium is removed from each well, the test articles are diluted in culture medium without doxcycyline and 100 μL was added to cell culture wells (9 concentrations, 4-fold dilution). For each plate, 6 untreated (merely DMSO) wells are included. The final concentration of DMSO in the culture medium is 2%. Each plate is prepared in duplicate (one for HBV DNA extraction, one for CellTiter-Glo 2.0 measurement). The cells are incubated at 37° C. and 5% CO2 for 3 days.
(§3) On day 4, cell viability is assessed using CellTiter-Glo 2.0 and cell lysates are prepared for HBV DNA extraction and subsequent quantification by qPCR.
Medium is removed from each well and 100 μL of 0.33% NP-40 in H2O was added to each well. Plates are sealed, incubated at 4° C. for 5 mins, vortexed extensively and centrifuged briefly. Next, 35 μL of lysate is added to 65 μL QuickExtract DNA Extraction Solution (Epicentre) in a PCR plate for each well. PCR plate is incubated at 65° C. for 6 mins, 98° C. for 2 mins and finally cooled to 4° C. HBV DNA is then quantified by qPCR with HBV-specific primers and probes as specified in Table 2 using the Bio-Rad SSOAdvanced Universal Probes Supermix on a CFX96 machine (Bio-Rad). The PCR cycle program consisted of 95° C. for 3 mins, followed by 40 cycles at 95° C. for 10 sec and 60° C. for 30 sec.
A DNA standard is prepared by dilution of an IDT gBlock corresponding to the amplicon with concentrations ranging from 10^A2 to 10^A8 copies/input (i.e. per 4 μL) and used to generate a standard curve by plotting Cq values vs. HBV DNA standard concentration. The quantity of HBV DNA in each sample is determined by interpolating from the standard curve.
(§4) Cell viability is calculated as follows: % Cell viability=(luminescence value of test sample)/(average luminescence value of 2% DMSO control)×100%. HBV DNA inhibition was calculated as follows: 100−(HBV DNA copy number of test sample)/(average HBV DNA copy number of 2% DMSO control)×100%. No normalization to entecavir is required due to the excellent dynamic window of this assay. The CC50, EC50 and EC90 values were determined by dose-response curves fitted using non-linear regression.

[1] = Cell viability by CellTiter-Glo 2.0 (intracellular ATP) in HepG2.117 cells; format: cell-based; details: human, CellTiter-Glo 2.0, 3 days incubation
Experimental: as §1, §2, §3
(§5) Using the other plates, the cell viability is quantified by CellTiter-Glo 2.0 according to the manufacturer's manual. In brief, 100 μL of reagent solution is added to the culture plates and shaken for 2′. The plates are incubated at room temperature for 10 min and luminescence signal is subsequently measured on a VarioSkan Lux (ThermoFisher) plate reader.
as §4

HepG2.117 cells = assay: as above; format: cell-based; details: CellTiter-Glo 2.0, 3 days incubation
Experimental: as §1, §2, §3, §5, §4

[2] = Hepatitis B virus, 72 h, HBV DNA inhibition, HepG2.117 cells, 3 days incubation, read-out: EC50
[3] = HBV DNA inhibition, HepG2.117 cells, 3 days incubation, read-out: EC50
[4] = Hepatitis B virus, HepG2.117, 72 h

CNC(=O)c1ccc(-n2c(NCc3ccccc3-c3ccccn3)nc3c(c2=O)C[C@@H](C)N(C(=O)c2ccc(Br)c(C(F)(F)F)c2)C3)c(Cl)c1 (single isomer, unassigned) [Compound 1a]
EC50 (HBV; [2]): < 0.05 µM
CC50 at 3 days [1]: > 50 µM

CNC(=O)c1ccc(-n2c(NCc3ccccc3-c3ccccn3)nc3c(c2=O)C[C@@H](C)N(C(=O)c2ccc(Br)c(C(F)(F)F)c2)C3)c(Cl)c1 (single isomer, unassigned) [Compound 1b]
EC50 (HBV; [3]): < 0.05 µM
CC50 (HepG2.117 cells): > 50 µM

CNC(=O)c1ccc(-n2c([C@@H]3CCCN3C(C)C)nc3c(c2=O)CC(C)N(C(=O)c2ccc(Br)c(C(F)(F)F)c2)C3)cc1 (single isomer, unassigned) [Compound 11a]
EC50 (HBV; [2]): 0.5 to 5 µM
CC50 at 3 days [1]: > 50 µM

CNC(=O)c1ccc(-n2c([C@@H]3CCCN3C(C)C)nc3c(c2=O)CC(C)N(C(=O)c2ccc(Br)c(C(F)(F)F)c2)C3)cc1 (single isomer, unassigned) [Compound 11b]
EC50 (HBV; [3]): 0.5 to 5 µM
CC50 (HepG2.117 cells): > 50 µM

CNC(=O)c1ccc(-n2c(-n3ccc(C(C)C)n3)nc3c(c2=O)C[C@@H](C)N(C(=O)c2ccc(Br)c(C(F)(F)F)c2)C3)cc1 [Compound 2, (R)-4-(7-(4-bromo-3-(trifluoromethyl)benzoyl)-2-(3-isopropyl-1H-pyrazol-1-yl)-6-methyl-4-oxo-5,6,7,8-tetrahydropyrido[3,4-d]pyrimidin-3(4H)-yl)-N-methylbenzamide]
EC50 (HBV; [2]): < 0.05 µM
CC50 at 3 days [1]: > 50 µM

CNC(=O)c1ccc(-n2c(N(Cc3ccccc3)C3CC(F)(F)C3)nc3c(c2=O)C[C@@H](C)N(C(=O)c2ccc(Br)c(C(F)(F)F)c2)C3)cc1 [Compound 3, (R)-4-(2-(benzyl(3,3-difluorocyclobutyl)amino)-7-(4-bromo-3-(trifluoromethyl)benzoyl)-6-methyl-4-oxo-5,6,7,8-tetrahydropyrido[3,4-d]pyrimidin-3(4H)-yl)-N-methylbenzamide]
EC50 (HBV; [2]): < 0.05 µM
CC50 at 3 days [1]: > 50 µM

CNC(=O)c1ccc(-n2c(N(Cc3ccccc3)CC3CC3)nc3c(c2=O)C[C@@H](C)N(C(=O)c2ccc(Br)c(C(F)(F)F)c2)C3)cc1 [Compound 4, (R)-4-(2-(benzyl(cyclopropylmethyl)amino)-7-(4-bromo-3-(trifluoromethyl)benzoyl)-6-methyl-4-oxo-5,6,7,8-tetrahydropyrido[3,4-d]pyrimidin-3(4H)-yl)-N-methylbenzamide]
EC50 (HBV; [2]): < 0.05 µM
CC50 at 3 days [1]: > 50 µM

CNC(=O)c1ccc(-n2c(N(Cc3ccccc3)C3CCC3)nc3c(c2=O)C[C@@H](C)N(C(=O)c2ccc(Br)c(C(F)(F)F)c2)C3)cc1 [Compound 5, (R)-4-(2-(benzyl(cyclobutyl)amino)-7-(4-bromo-3-(trifluoromethyl)benzoyl)-6-methyl-4-oxo-5,6,7,8-tetrahydropyrido[3,4-d]pyrimidin-3(4H)-yl)-N-methylbenzamide]
EC50 (HBV; [4]): < 0.05 µM
CC50 at 3 days [1]: > 0.5 µM

CNC(=O)c1ccc(-n2c(-n3cccn3)nc3c(c2=O)C[C@@H](C)N(C(=O)c2ccc(Br)c(C(F)(F)F)c2)C3)cc1 [Compound 6, (R)-4-(7-(4-bromo-3-(trifluoromethyl)benzoyl)-6-methyl-4-oxo-2-(1H-pyrazol-1-yl)-5,6,7,8-tetrahydropyrido[3,4-d]pyrimidin-3(4H)-yl)-N-methylbenzamide]
EC50 (HBV; [2]): < 0.05 µM
CC50 at 3 days [1]: > 50 µM

COc1ccc(-n2c(-c3ccccc3)nc3c(c2=O)CCN(C(=O)c2ccc(Br)c(C(F)(F)F)c2)C3)cc1 [Compound 7, 7-(4-bromo-3-(trifluoromethyl)benzoyl)-3-(4-methoxyphenyl)-2-phenyl-5,6,7,8-tetrahydropyrido[3,4-d]pyrimidin-4(3H)-one]
EC50 (HBV; [4]): 0.5 to 5 µM
CC50 at 3 days [1]: > 0.5 µM

CNC(=O)c1ccc(-n2c(-c3cccc(C(C)C)n3)nc3c(c2=O)C[C@@H](C)N(C(=O)c2ccc(Br)c(C(F)(F)F)c2)C3)cc1 [Compound 8, (R)-4-(7-(4-bromo-3-(trifluoromethyl)benzoyl)-2-(6-isopropylpyridin-2-yl)-6-methyl-4-oxo-5,6,7,8-tetrahydropyrido[3,4-d]pyrimidin-3(4H)-yl)-N-methylbenzamide]
EC50 (HBV; [2]): < 0.05 µM
CC50 at 3 days [1]: 30 µM

CNC(=O)c1ccc(-n2c(-n3cc(C4CC4)cn3)nc3c(c2=O)C[C@@H](C)N(C(=O)c2ccc(Br)c(C(F)(F)F)c2)C3)cc1 [Compound 9, (R)-4-(7-(4-bromo-3-(trifluoromethyl)benzoyl)-2-(4-cyclopropyl-1H-pyrazol-1-yl)-6-methyl-4-oxo-5,6,7,8-tetrahydropyrido[3,4-d]pyrimidin-3(4H)-yl)-N-methylbenzamide]
EC50 (HBV; [2]): 0.05 to 0.5 µM
CC50 at 3 days [1]: 27.8 µM

CNC(=O)c1ccc(-n2c(-n3ccc(C4CC4)n3)nc3c(c2=O)C[C@@H](C)N(C(=O)c2ccc(Br)c(C(F)(F)F)c2)C3)cc1 [Compound 10, (R)-4-(7-(4-bromo-3-(trifluoromethyl)benzoyl)-2-(3-cyclopropyl-1H-pyrazol-1-yl)-6-methyl-4-oxo-5,6,7,8-tetrahydropyrido[3,4-d]pyrimidin-3(4H)-yl)-N-methylbenzamide]
EC50 (HBV; [2]): < 0.05 µM
CC50 at 3 days [1]: > 50 µM

CNC(=O)c1ccc(-n2c(N(CC3CC3)c3ccccc3)nc3c(c2=O)C[C@@H](C)N(C(=O)c2ccc(Br)c(C(F)(F)F)c2)C3)cc1 [Compound 12, (R)-4-(7-(4-bromo-3-(trifluoromethyl)benzoyl)-2-((cyclopropylmethyl)(phenyl)amino)-6-methyl-4-oxo-5,6,7,8-tetrahydropyrido[3,4-d]pyrimidin-3(4H)-yl)-N-methylbenzamide]
EC50 (HBV; [2]): < 0.05 µM
CC50 at 3 days [1]: 10.8 µM

CNC(=O)c1ccc(-n2c(N(Cc3ccccc3)C3CN(C)C3)nc3c(c2=O)C[C@@H](C)N(C(=O)c2ccc(Br)c(C(F)(F)F)c2)C3)cc1 [Compound 13, (R)-4-(2-(benzyl(1-methylazetidin-3-yl)amino)-7-(4-bromo-3-(trifluoromethyl)benzoyl)-6-methyl-4-oxo-5,6,7,8-tetrahydropyrido[3,4-d]pyrimidin-3(4H)-yl)-N-methylbenzamide]
EC50 (HBV; [2]): 0.5 to 5 µM
CC50 at 3 days [1]: 27 µM

CNC(=O)c1ccc(-n2c(-n3ccc(CC(C)C)n3)nc3c(c2=O)C[C@@H](C)N(C(=O)c2ccc(Br)c(C(F)(F)F)c2)C3)cc1 [Compound 14]
EC50 (HBV; [2]): < 0.05 µM
CC50 at 3 days [1]: > 50 µM

CCc1ccn(-c2nc3c(c(=O)n2-c2ccc(C(=O)NC)cc2)C[C@@H](C)N(C(=O)c2ccc(Br)c(C(F)(F)F)c2)C3)n1 [Compound 15]
EC50 (HBV; [2]): < 0.05 µM
CC50 at 3 days [1]: > 50 µM

CNC(=O)c1ccc(-n2c(-n3cc(CC(C)C)cn3)nc3c(c2=O)C[C@@H](C)N(C(=O)c2ccc(Br)c(C(F)(F)F)c2)C3)cc1 [Compound 16]
EC50 (HBV; [2]): 0.05 to 0.5 µM
CC50 at 3 days [1]: > 50 µM

CNC(=O)c1ccc(-n2c(C3CCN(C(=O)OC(C)(C)C)C3)nc3c(c2=O)CC(C)N(C(=O)c2ccc(Br)c(C(F)(F)F)c2)C3)cc1 (stereo not drawn) [Compound 17, t-butyl 3-(7-(4-bromo-3-(trifluoromethyl)benzoyl)-6-methyl-3-(4-(methylcarbamoyl)phenyl)-4-oxo-3,4,5,6,7,8-hexahydropyrido[3,4-d]pyrimidin-2-yl)pyrrolidine-1-carboxylate]
EC50 (HBV; [2]): 0.05 to 0.5 µM
CC50 at 3 days [1]: 24.2 µM

CCN1CCC(c2nc3c(c(=O)n2-c2ccc(C(=O)NC)cc2)CC(C)N(C(=O)c2ccc(Br)c(C(F)(F)F)c2)C3)C1 (stereo not drawn) [Compound 18, 4-(7-(4-bromo-3-(trifluoromethyl)benzoyl)-2-(1-ethylpyrrolidin-3-yl)-6-methyl-4-oxo-5,6,7,8-tetrahydropyrido[3,4-d]pyrimidin-3(4H)-yl)-N-methylbenzamide]
EC50 (HBV; [2]): > 5 µM
CC50 at 3 days [1]: > 50 µM

CNC(=O)c1ccc(-n2c(-n3ccc(C)n3)nc3c(c2=O)C[C@@H](C)N(C(=O)c2ccc(Br)c(C(F)(F)F)c2)C3)cc1 [Compound 19]
EC50 (HBV; [2]): < 0.05 µM
CC50 at 3 days [1]: > 50 µM
